Laboratory results: patent US12508323B2, “Method of treatment of colorectal, breast and lung cancer with metal containing immune agonist complexes” (HANGZHOU XINGAO BIOTECHNOLOGY CO., LTD., priority 2020, dated 2025)

Legend:
[1] = test system: coronavirus (ATCC VR-841); test: Inhibition of coronavirus replication in PBMCs (fluorescence quantitative RT-PCR); assay type: cell-based; settings: PBMC, 504 h, 100 μg/mL drug, 10 μL virus, after three weeks, six samples per group, read-out: Average inhibition rate of coronavirus (%)
Text: Peripheral blood mononuclear cells (PBMCs) used herein was purchased from Shanghai Saili biotechnology Co., Ltd, which mainly included lymphocytes (T cells/B cells), monocytes, macrophages, and dendritic cells. Most of PBMCs were lymphocytes. PBMCs were normal primary cells, which belonged to a mixed system.
The virus strain used herein was coronavirus (ATCC VR-841), which was suitable for laboratory use and purchased from ATCC company. It was a bronchopneumonia coronavirus. Virus experiments in this study were performed by virus laboratory of American Animals Inc.
The cultured PBMCs were divided into seven groups (six samples in each group), namely, group A: negative control group (PBMC); group B, PBMC+cGAMP; group C, PBMC+MncGAMP; group D, PBMC+complex VIII; group E, PBMC+complex I; group F, PBMC+complex II; and group G, PBMC+complex III. Except for group A, which was used as a control group without drug addition, all other groups were respectively added with 100 μg/mL of the corresponding drug. Each cell sample was added with 10 μL of virus, and the antiviral status of the different immune agonist complexes were determined after three weeks. The inhibition rate of virus was selected as an evaluation index. The activity titer of the virus was detected by fluorescence quantitative RT-PCR.

[2] = test system: dendritic cell DCs and T cells; test: Activation of immune cells (flow cytometry of spleen and lung cells); assay type: in vivo, mice; settings: 14 days after immunization, mouse spleen and lung tissues
Method: Mice were raised, immunized with virus infection, and subjected to blood collection, as the same as Example 3. Isotype control nanobody was purchased from eBiosciences; antibody magnetic beads were purchased from Militeny Biotech; and flow cytometer was purchased from BD company. 14 days after immunization, mouse spleen and lung tissues were taken, ground and pounded separately, filtered with a 40-μm filter, and centrifuged at 1000 rpm for 10 min to separate unlysed immune cells. The DC cells (CD40\CD80\CD86\MHCII), T cells and (CD8+) cells were separated by the antibody magnetic beads, and added with the corresponding FAC nanobody (diluted with FACS buffer). As a negative control, the isotype control nanobody was added into the DC cells followed by incubation for 1 h, centrifugation, and rinsing with PBS. After that, the samples were analyzed by the flow cytometry to select the appropriate cells for determination of fluorescence intensity (MFI), and the results were shown in Table 8.

[3] = test system: mice with localized cerebral ischemia; test: Local cerebral ischemia model (wire bolus method), Zea Longa 5-point behavioral score; assay type: in vivo; settings: ICR mice, 10 mg/kg i.p., Zea Longa 5-point scale (0 normal to 4)
Text: Healthy male ICR mice, weighing 18-20 g, were purchased from Shanghai Slaughter Laboratory Animal Co (quality certificate number (SCXK(SH) 2007-0005)) and raised in a cleaning experimental animal room.
Local cerebral ischemia model was made by wire bolus method to verify the therapeutic effects of immune agonist complexes on cerebral ischemic brain diseases in experimental animals.
Experimental mice were anesthetized with 10% chloral hydrate intraperitoneally, and a median cervical incision was made to separate and ligate the proximal segment of the right common carotid artery, the carotid artery and branch vessels thereof. The right internal carotid artery was isolated, the pterygopalatine artery was isolated downward along the internal carotid artery, and the root was ligated for this branch. The proximal end of the internal carotid was provided with a prepared wire, and the distal end of the internal carotid was provided with an artery clip. […] Behavioral scoring was performed after surgery, and the scoring was single-blinded with reference to the Zea Longa 5-point scale, which was scored as follows: 0, normal mice with no signs of neurological injury; 1, unable to fully extend the contralateral front paw; 2, turning in a circle to the outside; 3, relatively measured tipping; and 4, unable to walk spontaneously, and loss of consciousness injury. […]

SMILES: Nc1nc(=O)c2ncn(C3OC4COP(=O)(O)OC5C(COP(=O)(O)OC3C4O)OC(n3cnc4c(N)ncnc43)C5O)c2[nH]1 (stereo not drawn) [cGAMP, 2′3′-cGAMP]
- inhibition at 100 µg/mL [1]: 25 ± 4%
- CD8 cells (%) [2]: 2.3 ± 0.2%
- CD40 cells (%) [2]: 122.6%
- CD80 cells (%) [2]: 115.5%
- CD86 cells (%) [2]: 18.3%
- MHCII cells (%) [2]: 218.4%
- T cells (%) [2]: 0.3 ± 0.2%
- Behavioral scores (24 hours after surgery) [3]: 2.26 ± 0.40
- Behavioral scores (7 days after surgery) [3]: 1.65 ± 0.34
